The values below come from patent publication US20230010258A1, “COMPOSITION FOR PREVENTING OR INHIBITING AXONAL DEGENERATION” (CHECKMATE THERAPEUTICS INC., priority 2019, published 2023).

Test [1] relates to phosphorylation of JNK protein, a representative sub-regulatory marker of SARM1. The settings on record: MKN1 cells, Western blot, Hsp90 as housekeeping protein. For orientation: Immunoblotting shows a protein as a band on a membrane.
Method: Accordingly, in order to evaluate the axonal degeneration inhibitory effects of the compounds according to the present invention, the abilities of these compounds to inhibit SARM1 enzyme were analyzed. Specifically, whether phosphorylation of JNK protein, a representative sub-regulatory marker of SARM1, decreased, was evaluated by Western blot assay. A method for preparing the protein used in the Western blot assay is as follows. […] The entire cell lysate was fractionated using a centrifuge, and then only the solution containing the protein was extracted. The extracted protein was quantified by the Bradford method. The protein of the same concentration obtained through quantification was separated by SDS-polyacrylamide gel electrophoresis, and then transferred to a PVDF membrane. […] For visualization, an enhanced chemiluminescence system was used. Western blot assay was performed using JNK protein, a representative marker whose phosphorylation is regulated by SARM1, and the housekeeping protein Hsp90 was used for quantitative comparison of expression.
Test [2] deals with retinal ganglion cell axons. Description: Tadpole optic nerve axotomy model, axon survival score (Experimental Example 4). Particulars: axotomy at stage 43, evaluated 48 hours after axotomy, control DMSO. The format is in vivo, Xenopus tropicalis. As for the experimental part:
In order to verify the axon protective effect of the compound according to the present invention in the tadpole optic nerve axotomy model, an experiment was conducted in the same manner as in Experimental Example 3. Specifically, GFP-expressing DNA was delivered into one retina of a Xenopus tropicalis tadpole at stage 27 (before retinal development) by electroporation. At stage 43 (the time when the connection between the retina and the visual center of the brain is finished), axons of the epectroporated retina were axotomized, and the tissue was fixed at 24-hour intervals, followed by extraction of the brain. Next, the ventral midline of the brain was excised and unfolded, and then the GFP signal in the contra-lateral brain hemisphere was imaged with a confocal microscope (LSM700, Carl Zeiss, 20×, z-step 3 μm). Thereby, it was possible to observe retinal ganglion cell axons located along the optic tract extending from the optic chiasm to the optic tectum. […] Axonal degeneration could be quantified because the continuous GFP signal disappeared along the optic tract over time after axotomy. […] The degree of inhibition of axonal degeneration by the drug was evaluated 48 hours after axotomy. […] The percentage of healthy axons in the drug group relative to the control group taken as 100% was calculated and used as the axon survival score (0 to 100%).

The next test concerns axonal degeneration. The settings on record: cited from earlier work.
The test system of a further test is optic nerve axons. Kind of test: Tadpole optic nerve axotomy model, delay in Wallerian degeneration (Experimental Example 3). The format is in vivo, Xenopus tropicalis. Particulars: optic nerve axotomized at stage 41, 48 hours after treatment. The protocol: In order to verify the axon protective effect of the compound according to the present invention in the tadpole optic nerve axotomy model, an experiment was conducted according to the design shown in FIG. 13. Specifically, an in vitro fertilized Xenopus tropicalis (African frog) embryo (Nasco, Fort Atkinson, Wis. 53538, USA) is cultured to stage 27, and then a plasmid DNA expressing Enhanced Green Fluorescence Protein (EGFP) is delivered into the retinal progenitor cells of one eye by an electroporation technique. After culturing to stage 41, the axons of the retinal ganglion cells expressing the green fluorescent protein reach the optic tectum of the contralateral brain hemisphere, and this axon bundle is referred to as the optic nerve. When the optic nerve is axotomized at stage 41, Wallerian degeneration occurs in which axons distal from the cell body degenerate by fragmentation over about 72 hours. […] Wallerian degeneration of the Xenopus optic nerve occur in a stereotypical pattern at 24 hours, 48 hours and 72 hours after axotomy, and the degree of delay in Wallerian degeneration was quantified as percentage by comparing the degree of Wallerian degeneration in the drug-treated group with this pattern.

Structures can show the parent of a compound that is named as a salt.

On to `O=C(NCc1ccc(-c2nc3ccc(Cl)cc3o2)cc1)c1cccnc1` [A4266, N-(4-(6-chlorobenzo[d]oxazol-2-yl)benzyl)nicotinamide], for which the JNK phosphorylation entry in test [1] is “had the effect of inhibiting JNK phosphorylation”.

Consider `CS(=O)(=O)c1ccc2oc(-c3ccc(CNC(=O)c4cccnc4)cc3)nc2c1` [A4510H, N-(4-(5-(methylsulfonyl)benzo[d]oxazol-2-yl)benzyl)nicotinamide hydrochloride], for which, in test [2], the “axon protective effect (axon survival score)” value is given as “exhibited an excellent axon protective effect”.

Turning to `O=C(/C=C/c1cccnc1)NCCCCC1CCN(C(=O)c2ccccc2)CC1` [FK866], the axonal degeneration entry in the test on axonal degeneration is on record as “effect of partially inhibiting axonal degeneration”.

In the case of `Nc1ccc(/C=C/C(=O)NCc2cc3cc(-c4ccc(C(=O)N5CCC(F)(F)CC5)cc4)cc(-c4ccc(F)cc4)c3o2)cn1` [KPT9274], in the test with optic nerve axons, the “axon protective effect (degree of delay in Wallerian degeneration)” value is listed as “did not exhibit a significant axon protective effect”.

As for `CC(C)(O)CS(=O)(=O)Nc1ccc2c(c1)CCN(C(=O)COc1cccnc1)C2` [LSN 3154567], in the test with optic nerve axons, the “axon protective effect (degree of delay in Wallerian degeneration)” value is given as “did not exhibit a significant axon protective effect”.
